Measured values as given in US20250228978A1, “ENGINEERING SUICIDE GENE APPROACHES TO IMPROVE CHEMOTHERAPEUTIC RESPONSE IN CANCER” (University of Virginia Patent Foundation, priority 0001, published 2025).

Assays:
[1] = tested on: G816 cells (glioma-initiating cell line); test: p38-regulated HSVtk constructs: FLAG abundance; assay type: cell-based, human; details: for FLAG expression of FLAG-NLS-HSVtk-MEF2A: two days, SB 203580 10 μM, trametinib 50 nM
Description: Referring to FIG. 18B, four designs tested included peptide sequences from the MAPK targets CHOP, MEF2A, p21, and FRA1. […] Sequences shown in blue were taken from proteins primarily phosphorylated by p38, while domains in gray were taken from the original FRA 1-PEST PEST design. The ERK recognition sequence was removed from these designs to improve specificity toward p38. G816 cells (glioma-initiating cell line) expressing each of the four HSVtk constructs were grown in 21% oxygen or 1% oxygen (hypoxia), with or without SB 203580 (p38 inhibitor, 10 μM for two days. Hypoxic induction of p38 phosphorylation promoted protein stabilization, which was abrogated with the addition of a p38 inhibitor to varying degrees for each construct.
Referring to FIG. 22A, G816-FLAG-NLS-HSVtk-MEF2A cells were treated with DMSO (vehicle), GCV (50 μM), or TMZ (500 μM) for up to 48 hours.
Referring to FIG. 22C, G816-FLAG-NLS-HSVtk-MEF2A cells were treated with DMSO (vehicle), SB 203580 (p38 inhibitor (p38i), 10 μM), or trametinib (MEK inhibitor (MEKi), 50 nM), in addition to TNFα, GCV, or TMZ for two days.

[2] = tested on: cells expressing yCD-FIRE; test: yCD-FIRE expression and 5-FC cell killing; assay type: cell-based
[3] = tested on: U87 MG cells expressing AKT-gen2; test: Effect of chemotherapy on AKT-gen2 SGT (FLAG) expression; assay type: cell-based; details: 48 hr; for FLAG expression of AKT-gen2 SGT vs control: carboplatin 200 μM or TMZ 300 μM, immunoblot
Description: U87 MG cells expressing AKT-gen2 were treated with carboplatin (200 μM), TMZ (300 μM), or DMSO, and lysed after 48 hours. Densitometry was used to quantify the GAPDH-normalized FLAG signal.
Cells were also treated with carboplatin (125 μM) or DMSO for 48 hours and immunofluorescence microscopy was performed using antibodies against the proteins as shown in FIG. 29B. The expression of each variant was quantified as the mean FLAG expression on a per-cell basis.
(§1) To determine if a CK2-regulated SGT would cooperate with chemotherapies used to treat glioblastoma, we measured the response of AKT-gen2 transductants to a combination of GCV with temozolomide (TMZ) or carboplatin. We hypothesized that a synergistic effect could occurs because CK2 contributes to DNA damage response and responds to stress signals; it seemed sensible that this could drive higher CK2 activity26,27,29.
[…]. We further examined the extent of carboplatin-mediated effects on CK2 expression increase through immunofluorescence microscopy (FIG. 29B). AKT-gen2 transductants were plated in 96-well glass-bottomed plates for imaging and treated with a reduced carboplatin concentration (125 μM) to promote the retention of adherent cells.
Because we observed increased CK2α and CK2α′ in carboplatin-treated cells (FIGS. 27A, 36A, and 36B), we next examined if the carboplatin-dependent increase in AKT-gen2 expression relies on CK2 expression. In U87 MG AKT-gen2 transductants expressing CK2 (α/α′ catalytic subunits) or control shRNA, CK2α knockdown abrogated the carboplatin-mediated increase in SGT expression (FIG. 29C).

[4] = tested on: U87 MG AKTgen2 transductants; test: Cell death by flow cytometry (TO-PRO-3), carboplatin pre-treatment followed by GCV; details: carboplatin 200 μM two days and/or GCV 50 μM three days
Description: Flow cytometry for cell death quantification. For cell death experiments, cells were plated in 6-well plates, and cell treatments were performed as described in figure legends. At the conclusion of experiments, floating and adherent cells were collected, resuspended in PBS containing TO-PRO-3 (Life Technologies, 1:10,000), and stored on ice until analysis. Within an hour of collection, cells were analyzed for TO-PRO-3 permeability with a FACSCalibur cytometer (BD Biosciences). Data collected from flow cytometry experiments was analyzed in R using the FlowCore, ggCyto, and OpenCyto packages.
Cells expressing AKT-gen2 were also pre-treated with DMSO or carboplatin (200 μM) for two days, followed by treatment with DMSO or GCV (50 μM) administration for three days. Cell death was then measured by flow cytometry through TOPRO staining.

CK2α and CK2α′ = test: CK2 catalytic subunit expression after TMZ or carboplatin (immunofluorescence); assay type: cell-based; details: U87 MG cells, drug treated
Description: FIGS. 36A and 36B. Effect of TMZ or carboplatin on CK2 expression. U87 MG cells were subjected to immunofluorescence microscopy using antibodies against the two CK2 catalytic (FIG. 36A: CK2α, FIG. 36B: CK2α′) subunits. Image is representative of n=3 replicates and data are plotted as mean±sd. A Student's t test was applied to determine the significance of observed differences; *, **, and *** indicate p=0.05, 0.01, or 0.001, respectively.
as §1

CC(=O)Nc1cccc(-n2c(=O)n(C3CC3)c(=O)c3c(Nc4ccc(I)cc4F)n(C)c(=O)c(C)c32)c1 [trametinib, N-[3-[3-cyclopropyl-5-(2-fluoro-4-iodoanilino)-6,8-dimethyl-2,4,7-trioxopyrido[4,3-d]pyrimidin-1-yl]phenyl]acetamide]
FLAG expression of FLAG-NLS-HSVtk-MEF2A [1]: promoted PEST stabilization

TNFα
FLAG expression of FLAG-NLS-HSVtk-MEF2A [1]: increased

C[S+]([O-])c1ccc(-c2nc(-c3ccncc3)c(-c3ccc(F)cc3)[nH]2)cc1 (stereo not drawn) [SB 203580]
FLAG expression of FLAG-NLS-HSVtk-MEF2A [1]: attenuated in some cases

Nc1nc(=O)c2ncn(COC(CO)CO)c2[nH]1 [GCV, ganciclovir]
FLAG abundance of FLAG-NLS-HSVtk-MEF2A relative to vehicle ([1]; GCV 50 μM or TMZ 500 μM, 48 hours): increased FLAG abundance
FLAG expression of FLAG-NLS-HSVtk-MEF2A [1]: increased

Nc1nc(=O)[nH]cc1F [Variant 5-FC, 5-fluorocytosine]
cell viability in response to 5-FC plus growth factors ([2]; cells expressing yCD-FIRE): decreases
5-FC IC50 ([2]; cells treated with growth factors vs not treated): lower

Cn1nnc2c(C(N)=O)ncn2c1=O [TMZ, temozolomide]
FLAG expression of AKT-gen2 SGT vs control [3]: no effect

N.N.O=C([O-])C1(C(=O)[O-])CCC1.[Pt+2] [Carboplatin, carboplatin]
carboplatin-mediated increase in SGT expression ([3]; CK2α knockdown, carboplatin 200 μM): abrogated
FLAG expression of AKT-gen2 SGT ([3]; carboplatin 125 μM, immunofluorescence): significant enhancement in FLAG expression
FLAG expression of AKT-gen2 SGT vs control [3]: significant increase in FLAG expression
carboplatin-mediated change in SGT accumulation ([3]; cells expressing CK2α′ shRNA, carboplatin 200 μM): small but insignificant increase
carboplatin-mediated change in AKT-gen2 expression ([3]; cells expressing control shRNA, carboplatin 200 μM): significant increase
reduction in cell viability [4]: ~15%
CK2α and CK2α′ expression (CK2α and CK2α′): stronger increase
